Data reported in patent publication US20070060558A1 (PALUMED S.A., priority 2004, published 2007).
In brackets after ≈: the same amount, converted by molar mass. Like-named read-outs stand apart in the source and are kept apart here.

What was measured:
[1] = test system: Staphylococcus aureus MSSA CIP 4.83; experiment: Antibacterial activity (MIC/MBC); format: cell-based; conditions: S. aureus MSSA CIP 4.83; for MBC: read-out: MBC
[2] = test system: S. pneumoniae PRSP CIP 104471; experiment: Antibacterial activity (MIC/MBC); format: cell-based, Streptococcus pneumoniae
[3] = test system: S. pneumoniae PRSP clinical isolate; experiment: Antibacterial activity (MIC/MBC); format: cell-based, Streptococcus pneumoniae
[4] = test system: E. faecalis VRE CIP 104676; experiment: Antibacterial activity (MIC/MBC); format: cell-based, Enterococcus faecalis; conditions: E. faecalis VRE CIP 104676
H. influenzae CIP 102514 = experiment: Antibacterial activity (MIC/MBC); format: cell-based, Haemophilus influenzae
[5] = Stability in solution at pH 7 (HPLC purity over time); format: physicochemical; conditions: pH 7, 37° C.
Method: The stability of the aminoquinoline-cephalosporin_hybrid molecules given as examples was determined in solution at 37° C., at physiological pH (pH 7, phosphate buffer/acetonitrile, 75/25 v/v) and at acidic pH (pH 1, 0.1 M HCl/ethanol, 70/30 v/v) by high pressure liquid chromatography coupled to a UV-visible detector (Beckman Coulter ODS C18 column, 5 μm, 4.6×250 mm; eluents: A: 0.1% TFA, B: CH3CN/H2O 90/10 0.1% TFA, gradient: from 10% to 100% of B in 30 minutes, and then 100% of B for 10 minutes, flow rate 1 mL/minutes, λ=254 nm, volume injected: 10 μL).

[6] = Staphylococcus aureus, read-out: MIC
[7] = Streptococcus pneumoniae, read-out: MIC
[8] = Streptococcus pneumoniae, PRSP, read-out: MIC
[9] = Enterococcus faecalis, read-out: MIC
[10] = Haemophilus influenzae, CIP102514

CC(=O)OCC1=C(C(=O)O)N2C(=O)[C@@H](N)[C@H]2SC1 [7-ACA, 7-aminocephalosporanic acid, reference compound]
MIC [1]: 50 µg/mL (≈ 184 µM)
MIC [2]: 50 µg/mL (≈ 184 µM)
MIC [3]: 50 µg/mL (≈ 184 µM)
MIC [4]: >50 µg/mL
MIC (H. influenzae CIP 102514; H. influenzae CIP 102514): 50 µg/mL (≈ 184 µM)

CC(C)(C)C(=O)OCOC(=O)[C@@H]1N2C(=O)[C@@H](NC(=O)C3CCN(c4ccnc5cc(Cl)ccc45)CC3)[C@H]2SC1(C)C [PA 1007, (2S,5R,6R)-6-{[1-(7-Chloroquinolin-4-yl)-piperidine-4-carbonyl]-amino}-3,3-dimethyl-7-oxo-4-thia-1-aza-bicyclo[3.2.0]heptane-2-carboxylic acid 2,2-dimethyl-propionyloxymethyl ester]
MBC ([1]; Staphylococcus aureus): 0.49 µg/mL (≈ 0.812 µM)
MIC [1, 6]: 0.012 µg/mL (≈ 0.0199 µM)

CC(=O)OCC1=C(C(=O)O)N2C(=O)[C@@H](NC(=O)CCNc3ccnc4cc(Cl)ccc34)[C@H]2SC1 [PA 1037]
MBC ([1]; Staphylococcus aureus): > 50 µg/mL
MIC [1, 6]: 0.39 µg/mL (≈ 0.772 µM)
MBC ([2]; Streptococcus pneumoniae): 3.12 µg/mL (≈ 6.18 µM)
MIC [2, 7]: 1.56 µg/mL (≈ 3.09 µM)
MBC ([3]; Streptococcus pneumoniae): 6.25 µg/mL (≈ 12.4 µM)
MIC [3, 8]: 3.12 µg/mL (≈ 6.18 µM)
MBC ([4]; Enterococcus faecalis): 25 µg/mL (≈ 49.5 µM)
MIC [4, 9]: 6.25 µg/mL (≈ 12.4 µM)
MBC (H. influenzae CIP 102514; [10]): 25 µg/mL (≈ 49.5 µM)
MIC (H. influenzae CIP 102514; [10]): 6.25 µg/mL (≈ 12.4 µM)

CC(=O)OCC1=C(C(=O)O)N2C(=O)[C@@H](NC(=O)CCCNc3ccnc4cc(Cl)ccc34)[C@H]2SC1 [PA 1053, (6R,7R-3-Acetoxymethyl-7-[4-7-chloroquinolin-4-ylamino)-butyrylamino]-8-oxo-5-thia-1-aza-bicyclo[4.2.0]oct-2-ene-2-carboxylic acid]
MBC ([1]; Staphylococcus aureus): > 50 µg/mL
MIC [1, 6]: 0.78 µg/mL (≈ 1.5 µM)
MBC ([2]; Streptococcus pneumoniae): 3.12 µg/mL (≈ 6.01 µM)
MIC [2, 7]: 1.56 µg/mL (≈ 3.01 µM)
MBC ([3]; Streptococcus pneumoniae): 6.25 µg/mL (≈ 12 µM)
MIC [3, 8]: 3.12 µg/mL (≈ 6.01 µM)
MBC ([4]; Enterococcus faecalis): > 50 µg/mL
MIC [4, 9]: 25 µg/mL (≈ 48.2 µM)
MBC (H. influenzae CIP 102514; [10]): 25 µg/mL (≈ 48.2 µM)
MIC (H. influenzae CIP 102514; [10]): 6.25 µg/mL (≈ 12 µM)

CC(=O)OCC1=C(C(=O)O)N2C(=O)[C@@H](NC(=O)C3CCN(c4ccnc5cc(Cl)ccc45)CC3)[C@H]2SC1.Cl [PA 1074]
Purity of the hybrid molecules (as a percentage) as a function of time (hours) ([5]; time 0 h): 100%
Purity of the hybrid molecules (as a percentage) as a function of time (hours) ([5]; time 1 h): 100%
Purity of the hybrid molecules (as a percentage) as a function of time (hours) ([5]; time 2 h): 100%
Purity of the hybrid molecules (as a percentage) as a function of time (hours) ([5]; time 4 h): 100%
Purity of the hybrid molecules (as a percentage) as a function of time (hours) ([5]; time 6 h): 100%
Purity of the hybrid molecules (as a percentage) as a function of time (hours) ([5]; time 8 h): 97%
Purity of the hybrid molecules (as a percentage) as a function of time (hours) ([5]; time 15 h): 88%
Purity of the hybrid molecules (as a percentage) as a function of time (hours) ([5]; time 24 h): 87%
MBC ([1]; Staphylococcus aureus): 1.56 µg/mL
MIC [1, 6]: 0.78 µg/mL
MBC ([2]; Streptococcus pneumoniae): 50 µg/mL
MIC [2, 7]: 25 µg/mL
MBC ([3]; Streptococcus pneumoniae): 50 µg/mL
MIC [3, 8]: 25 µg/mL
MBC ([4]; Enterococcus faecalis): > 50 µg/mL
MIC [4, 9]: 50 µg/mL
MBC (H. influenzae CIP 102514; Haemophilus influenzae, CIP102514, H. influenzae CIP 102514, read-out: MBC): > 50 µg/mL
MIC (H. influenzae CIP 102514; Haemophilus influenzae, CIP102514, H. influenzae CIP 102514, read-out: MIC): 50 µg/mL

CC(=O)OCC1=C(C(=O)O)N2C(=O)[C@@H](NC(=O)CNc3ccnc4cc(Cl)ccc34)[C@H]2[S+]([O-])C1.Cl (stereo partly drawn) [PA 1088, (6R,7R-3-Acetoxymethyl-7-[2-7-chloroquinolin-4-ylamino)acetylamino]-5,8-dioxo-5λ^4-thia-1-aza-bicyclo[4.2.0]oct-2-ene-2-carboxylic acid hydrochloride]
Purity of the hybrid molecules (as a percentage) as a function of time (hours) ([5]; time 0 h): 100%
Purity of the hybrid molecules (as a percentage) as a function of time (hours) ([5]; time 1 h): 100%
Purity of the hybrid molecules (as a percentage) as a function of time (hours) ([5]; time 2 h): 100%
Purity of the hybrid molecules (as a percentage) as a function of time (hours) ([5]; time 4 h): 100%
Purity of the hybrid molecules (as a percentage) as a function of time (hours) ([5]; time 24 h): 81%
